# Calls of active or inactive are those of the source. The calls are words filed in the database; no cut-off is given here.
# Columns and labels:
# Dipeptidyl peptidase 1 = Dipeptidyl peptidase 1 (Homo sapiens, UniProt P53634); experiment: Inhibition of human recombinant Cathepsin C using Gly-Phe-AFC as substrate preincubated for 3 hrs followed by substrate addition and measured after 1 hr by fluorescence based multifunctional microplate reader analysis
# [1] = Tmax in male Sprague-Dawley rat at 10 mg/kg, po measured at 5 to 1440 mins by LC-MS/MS analysis; assay type: ADME, organism-based; conditions: in vivo, time 5-1440 min
# [2] = Cmax in male Sprague-Dawley rat at 10 mg/kg, po measured at 5 to 1440 mins by LC-MS/MS analysis; assay type: ADME, organism-based; conditions: in vivo, time 5-1440 min
# [3] = AUC (0 to infinity) in male Sprague-Dawley rat at 10 mg/kg, po measured at 5 to 1440 mins by LC-MS/MS analysis; assay type: ADME, organism-based; conditions: in vivo, time 5-1440 min
# [4] = biological target: T1, Dipeptidyl peptidase 1 (Mus musculus) (UniProt P97821); experiment: In vivo inhibition of Cathepsin C in C57BL/6 mouse assessed as reduction in cathepsin C activity in bone marrow at 15 mg/kg, po administered once daily for 6 days by fluorescence based microplate reader relative to control; assay type: functional, organism-based; conditions: time 6.0 day
# T1 sequence (whole entry): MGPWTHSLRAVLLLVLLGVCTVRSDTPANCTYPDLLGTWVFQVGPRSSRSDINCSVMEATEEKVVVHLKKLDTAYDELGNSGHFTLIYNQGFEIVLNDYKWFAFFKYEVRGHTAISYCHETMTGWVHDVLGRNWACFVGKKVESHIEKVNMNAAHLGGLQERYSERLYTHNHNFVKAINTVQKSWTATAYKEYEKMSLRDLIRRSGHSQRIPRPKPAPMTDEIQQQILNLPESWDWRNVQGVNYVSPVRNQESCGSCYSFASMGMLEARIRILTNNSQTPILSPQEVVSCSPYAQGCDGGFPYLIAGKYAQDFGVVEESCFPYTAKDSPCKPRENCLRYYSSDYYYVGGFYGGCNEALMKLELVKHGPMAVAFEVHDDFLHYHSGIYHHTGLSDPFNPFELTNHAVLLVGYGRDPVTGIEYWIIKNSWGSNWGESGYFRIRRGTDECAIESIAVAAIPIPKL
# [5] = biological target: T1, Dipeptidyl peptidase 1 (Mus musculus); experiment: In vivo inhibition of Cathepsin C in C57BL/6 mouse assessed as reduction in cathepsin C activity in blood administered orally once daily for 6 days by fluorescence based microplate reader; assay type: functional, organism-based; conditions: dose 5-30 mg/kg, route po, time 6.0 day
# [6] = biological target: T1, Dipeptidyl peptidase 1 (Mus musculus); experiment: In vivo inhibition of Cathepsin C in C57BL/6 mouse assessed as reduction in cathepsin C activity in blood at 30 mg/kg, po administered once daily for 6 days by fluorescence based microplate reader relative to control; assay type: functional, organism-based; conditions: time 6.0 day
# [7] = Acute toxicity in ICR mouse assessed as lung pathological change at 1500 mg/kg, po administered daily for 7 days by H and E staining based analysis; assay type: organism-based; conditions: in vivo, 168 h, time 7 day
# [8] = Acute toxicity in ICR mouse assessed as change in white blood cell count in bone marrow at 1500 mg/kg, po administered daily for 7 days; assay type: organism-based; conditions: in vivo, 168 h, time 7 day
# [9] = biological target: Voltage-gated inwardly rectifying potassium channel KCNH2 (Homo sapiens, UniProt Q12809); experiment: Inhibition of hERG; assay type: toxicity
# Voltage-gated inwardly rectifying potassium channel KCNH2, sequence (Q12809 whole entry): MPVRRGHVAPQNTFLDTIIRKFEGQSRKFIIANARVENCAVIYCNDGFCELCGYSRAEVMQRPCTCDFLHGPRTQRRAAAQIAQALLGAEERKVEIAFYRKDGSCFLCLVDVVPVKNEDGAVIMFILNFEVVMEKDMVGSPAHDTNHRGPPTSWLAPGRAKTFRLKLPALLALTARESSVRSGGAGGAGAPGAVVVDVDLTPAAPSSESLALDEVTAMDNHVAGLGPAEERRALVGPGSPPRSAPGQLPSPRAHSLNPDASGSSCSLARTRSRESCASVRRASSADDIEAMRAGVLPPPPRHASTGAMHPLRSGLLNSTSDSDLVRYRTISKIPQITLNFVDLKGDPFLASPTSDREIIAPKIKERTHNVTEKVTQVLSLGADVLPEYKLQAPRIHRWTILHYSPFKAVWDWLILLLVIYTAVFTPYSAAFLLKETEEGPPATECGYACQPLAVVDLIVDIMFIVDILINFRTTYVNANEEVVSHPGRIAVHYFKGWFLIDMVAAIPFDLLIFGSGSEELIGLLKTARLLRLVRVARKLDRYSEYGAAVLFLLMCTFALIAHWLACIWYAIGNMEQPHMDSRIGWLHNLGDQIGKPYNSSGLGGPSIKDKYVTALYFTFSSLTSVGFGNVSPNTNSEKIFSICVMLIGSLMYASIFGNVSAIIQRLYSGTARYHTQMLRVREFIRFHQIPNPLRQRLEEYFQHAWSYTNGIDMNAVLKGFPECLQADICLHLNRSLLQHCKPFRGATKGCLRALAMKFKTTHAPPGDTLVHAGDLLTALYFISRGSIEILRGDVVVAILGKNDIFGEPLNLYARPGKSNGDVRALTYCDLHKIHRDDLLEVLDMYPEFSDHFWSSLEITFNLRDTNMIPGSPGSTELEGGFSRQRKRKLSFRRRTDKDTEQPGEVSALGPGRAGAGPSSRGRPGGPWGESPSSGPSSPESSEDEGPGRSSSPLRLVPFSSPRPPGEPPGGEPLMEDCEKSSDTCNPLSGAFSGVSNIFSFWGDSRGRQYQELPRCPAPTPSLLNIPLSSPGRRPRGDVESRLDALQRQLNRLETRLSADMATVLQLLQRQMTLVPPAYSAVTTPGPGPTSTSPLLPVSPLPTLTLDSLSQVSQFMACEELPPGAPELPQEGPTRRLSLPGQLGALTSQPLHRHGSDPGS
# Mus musculus [10] = experiment: Anti-inflammatory activity in DSS-induced ulcerative colitis male C57BL/6 mouse model assessed as reduction in disease activity index (DAI) score at 60 mg/kg administered via gavage for 10 days; assay type: functional, organism-based; conditions: time 10.0 day
# Mus musculus [11] = experiment: Anti-inflammatory activity in DSS-induced ulcerative colitis male C57BL/6 mouse model assessed as reduction in TNF-alpha expression in colon administered via gavage for 10 days by ELISA; assay type: functional, organism-based; conditions: dose 15-60 mg/kg, time 10.0 day
# Mus musculus [12] = experiment: Anti-inflammatory activity in DSS-induced ulcerative colitis male C57BL/6 mouse model assessed as reduction in IL-1 beta expression in serum administered via gavage for 10 days by ELISA; assay type: functional, organism-based; conditions: dose 15-60 mg/kg, time 10.0 day
# Mus musculus [13] = experiment: Anti-inflammatory activity in DSS-induced ulcerative colitis male C57BL/6 mouse model assessed as reduction in IL-6 expression in colon administered via gavage for 10 days by ELISA; assay type: functional, organism-based; conditions: dose 15-60 mg/kg, time 10.0 day
# Mus musculus [14] = experiment: Anti-inflammatory activity in DSS-induced ulcerative colitis male C57BL/6 mouse model assessed as reduction in GM-CSF expression in colon administered via gavage for 10 days by ELISA; assay type: functional, organism-based; conditions: dose 15-60 mg/kg, time 10.0 day
# Mus musculus [15] = experiment: Anti-inflammatory activity in DSS-induced ulcerative colitis male C57BL/6 mouse model assessed as reduction in Cathepsin C level in serum at 60 mg/kg administered via gavage for 10 days relative to control; assay type: functional; design: scale not given: the % may be the effect or the level left; conditions: time 10 day
# Mus musculus [16] = experiment: Anti-inflammatory activity in DSS-induced ulcerative colitis male C57BL/6 mouse model assessed as reduction in proteinase 3 level in colon at 60 mg/kg administered via gavage for 10 days relative to control; assay type: functional; design: scale not given: the % may be the effect or the level left; conditions: time 10 day
# Mus musculus [17] = experiment: Anti-inflammatory activity in DSS-induced ulcerative colitis male C57BL/6 mouse model assessed as reduction in Cathepsin C level in serum at 15 to 30 mg/kg administered via gavage for 10 days; assay type: functional, organism-based; conditions: dose 15-30 mg/kg, time 10.0 day
# [18] = biological target: T2, Myeloblastin (Mus musculus) (UniProt Q61096); experiment: Induction of proteinase 3 degradation in C57BL/6 mouse bone marrow cells assessed as remaining activity at 10 uM incubated for 12 hrs by Western blot analysis relative to control; assay type: cell-based; conditions: Bone marrow cell
# T2 sequence (whole entry): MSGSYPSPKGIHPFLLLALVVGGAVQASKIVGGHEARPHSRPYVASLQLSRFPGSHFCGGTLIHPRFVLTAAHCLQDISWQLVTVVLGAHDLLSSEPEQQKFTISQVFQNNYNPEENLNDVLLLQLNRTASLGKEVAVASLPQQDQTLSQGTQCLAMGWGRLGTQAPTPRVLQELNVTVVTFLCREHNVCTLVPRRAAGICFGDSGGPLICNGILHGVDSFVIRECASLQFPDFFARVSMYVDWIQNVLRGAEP
# [19] = biological target: T2, Myeloblastin (Mus musculus); experiment: Induction of proteinase 3 degradation in C57BL/6 mouse bone marrow cells at 10 uM incubated for 24 hrs by Western blot analysis; assay type: cell-based; conditions: Bone marrow cell
# [20] = biological target: T3, Cathepsin G (Mus musculus) (UniProt P28293); experiment: Induction of Cathepsin G degradation in C57BL/6 mouse bone marrow cells at 10 uM incubated for 24 hrs by Western blot analysis; assay type: cell-based; conditions: Bone marrow cell
# T3 sequence (whole entry): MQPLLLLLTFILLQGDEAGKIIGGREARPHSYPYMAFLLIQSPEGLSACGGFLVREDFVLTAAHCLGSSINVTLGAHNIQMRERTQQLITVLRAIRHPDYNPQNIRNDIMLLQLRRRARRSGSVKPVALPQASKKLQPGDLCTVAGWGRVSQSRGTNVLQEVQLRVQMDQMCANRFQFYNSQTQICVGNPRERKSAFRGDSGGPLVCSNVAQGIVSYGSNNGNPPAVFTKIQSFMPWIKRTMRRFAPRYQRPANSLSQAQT
# Mus musculus [21] = experiment: Anti-inflammatory activity in DSS-induced ulcerative colitis male C57BL/6 mouse model assessed as decrease in body weight loss at 15 mg/kg administered via gavage for 10 days; assay type: functional, organism-based; conditions: time 10.0 day
# Mus musculus [22] = experiment: Anti-inflammatory activity in DSS-induced ulcerative colitis male C57BL/6 mouse model assessed as reduction in cathepsin G level in serum at 15 to 30 mg/kg administered via gavage for 10 days; assay type: functional, organism-based; conditions: dose 15-30 mg/kg, time 10.0 day
# Dipeptidyl peptidase 1, sequence (P53634 25-134 limits assumed): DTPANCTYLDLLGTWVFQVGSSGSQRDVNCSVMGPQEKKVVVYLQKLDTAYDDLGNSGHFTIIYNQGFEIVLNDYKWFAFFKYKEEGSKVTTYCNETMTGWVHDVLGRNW
# Dipeptidyl peptidase 1, sequence (P53634 231-394 limits assumed): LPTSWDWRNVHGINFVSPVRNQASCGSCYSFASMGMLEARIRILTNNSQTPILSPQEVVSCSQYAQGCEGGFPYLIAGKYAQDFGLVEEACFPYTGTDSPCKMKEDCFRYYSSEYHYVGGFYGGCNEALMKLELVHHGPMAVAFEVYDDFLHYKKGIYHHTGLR
# Dipeptidyl peptidase 1, sequence (P53634 395-463 limits assumed): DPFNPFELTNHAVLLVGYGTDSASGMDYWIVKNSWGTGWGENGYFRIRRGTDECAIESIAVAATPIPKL
smiles,measurement,setting,value
O=C1Nc2c(cccc2-c2ccc(NC3CCOCC3)cc2)/C1=C/c1ccnc2ccccc12,IC50,Dipeptidyl peptidase 1,84.3 nM
same,Tmax,[1],39.6 min
same,Cmax,[2],158 ng/mL
same,AUC,[3],407.54 ng·h/mL
same,inhibition,[4],< 50%
same,inhibition,[5],Dose-dependent-effect
same,inhibition,[6],27.2%
same,Activity,[7],Non-toxic
same,Activity,[8],Non-toxic
same,IC50,[9],> 30000 nM
same,Activity,Mus musculus [10],Active
same,Activity,Mus musculus [11],Active
same,Activity,Mus musculus [12],Dose-dependent-effect; Significant Reduction Observed In High Dose Group
same,Activity,Mus musculus [13],Dose-dependent-effect; Significant Reduction Observed In High Dose Group
same,Activity,Mus musculus [14],Dose-dependent-effect; Significant Reduction Observed In High Dose Group
same,Activity,Mus musculus [15],37%
same,Activity,Mus musculus [16],47%
same,Activity,Mus musculus [17],inactive
same,Activity,[18],75%
same,Activity,[19],Active
same,Activity,[20],Active
same,Activity,Mus musculus [21],Active; Weight Loss Was Lower Than In Mesalazine Group
same,Activity,Mus musculus [22],inactive
